Counter-ions that a name gives are not always drawn.
Assays:
[1] = CVC plasma levels in the UUO model (LC/MS/MS); type: in vivo; conditions: n = 8, ~4 hours post-dose (approximate Cmax), Day 5
Description: Male CD-1 mice (n = 51; 7–8 weeks of age; Charles River Laboratories, USA) were allocated to weight-matched treatment groups on Day -1 (1 day prior to either sham [one group] or permanent right UUO surgery [five groups] via aseptic laparotomy). From Days -1 to 4, mice received phosphate-buffered saline (PBS) IP QD, apart from a positive-control group, which received 1D11 (anti-TGF-beta1 antibody) 3 mg/kg IP QD. From Days 0 to 5, mice received vehicle control (sham surgery, UUO-control and UUO+positive-control groups) or CVC 7 mg/kg/day (CVC7), CVC20 or CVC100 PO BID (S1 Table). The CVC100 group was terminated due to poor clinical condition (6/9 animals died and 3/9 euthanized prior to end of study). Of note, a similar dose of CVC100 administered for 3 weeks was well tolerated in the mouse NASH model; therefore, it is plausible that the laparotomy and UUO surgery in combination with CVC may have contributed to the loss of animals. […]
CVC plasma levels (minimum and maximum) were determined by KCAS Bioanalytical Services, USA, using a validated liquid chromatography-tandem mass spectrometry (LC/MS/MS) plasma method (50 μL assay, range 10.0−1920.0 ng/mL).

[2] = system: CCl4-induced liver injury; conditions: cited from earlier work
diet-induced NASH = experiment: Mouse model of diet-induced NASH; type: in vivo; conditions: for NAS, mean (±SD): vehicle 5.3 (±0.5); for Liver hydroxyproline content: vehicle 0.75±0.18; for Percentage of inflammation area (F4/80+ area): vehicle 4.99±1.10; for M1/M2 ratio (F4/80+CD16/32+ / F4/80+CD206+): vehicle 99.6±20.2; for Reduction in modified fibrosis area (perivascular space subtracted) vs vehicle control / Reduction in percentage of fibrosis area vs vehicle control: p < 0.01; for Plasma CCL2 levels: vehicle 60±4
Description: NASH was induced in male C57BL/6 mice (Charles River Laboratories, Japan) via subcutaneous injection of 200 μg of streptozotocin 2 days post-birth (causing mild islet inflammation and islet destruction) plus a high-fat diet (57 kcal% fat) from 4 weeks of age (sequentially causing fatty changes to the liver, NASH and fibrosis). From Weeks 6 to 9, three groups (n = 9/group) received vehicle control, CVC20 or CVC100 BID PO (S1 Table). At Week 9, six animals per group were sacrificed for assessment of liver fibrosis and Non-Alcoholic Fatty Liver Disease (NAFLD) Activity Score (NAS). The animals were sacrificed by exsanguination through direct cardiac puncture under ether anesthesia. Study endpoints included: body and liver weights, plasma biochemistry (e.g. ALT and CCL2), extracellular matrix protein in liver tissue (hydroxyproline content), mRNA expression (collagen type 1, tumor necrosis factor-alpha, MCP-1, TIMP1) and histopathological analyses. Blood samples were collected and plasma samples derived for biochemistry assessments. Sections were cut from paraffin blocks of liver tissue, prefixed in Bouin’s solution and stained with H&E for histological examination.
In the TAA model, serum ALT/AST levels were measured using VITROS® 5,1 FS (Ortho Clinical Diagnostics, USA), with plasma diluted with VITROS® 7% bovine serum albumin if needed. In the NASH model, plasma ALT levels were measured by FUJI DRI-CHEM 7000 (Fujifilm, Japan) and plasma CCL2 concentration quantified by the mouse CCL2/JE/MCP-1 immunoassay kit (R&D, USA).
In the NASH model, bright field images of picrosirius red-stained sections were captured around the central vein using a digital camera (DFC280; Leica, Germany) at 200x magnification; the ‘positive’ areas in five fields/sections were measured using ImageJ software (National Institutes of Health, USA). Perivascular areas were subtracted from the total positive areas for each field (modified fibrosis area). The NAS, a histological tool developed to assess disease severity in humans, was assessed in a blinded fashion and calculated according to Kleiner’s criteria on H&E-stained sections. It is based on the semi-quantification of steatosis, lobular inflammation and hepatocellular ballooning.
In the NASH model, liver sections fixed in acetone were incubated with anti-F4/80 antibody (BMA Biomedicals, Switzerland) to assess inflammation. Double immunohistochemical analyses were performed with anti-CD206 (RayBiotec, USA) or anti-CD16/32 (BD Biosciences, USA) antibodies. Cells were counted and the M1/M2 polarization ratio was calculated as mean percentage of F4/80+CD16/32+ cells/mean percentage of F4/80+CD206+ cells.
In the NASH model, frozen liver samples were subjected to an alkaline-acid hydrolysis, then centrifuged, and the supernatant collected. Hydroxyproline content was quantified against a hydroxyproline standard curve, with a BCA protein assay kit (Thermo Fisher Scientific, USA) used to normalize the calculated hydroxyproline values.
In the hepatic-fibrosis models, RNA was extracted from liver tissues and purified, and 1 μg of total mRNA was reverse-transcribed into complementary DNA. Expression levels were determined by quantitative polymerase chain reaction (PCR) (iQ™ SYBR® Green Supermix [Bio-Rad Laboratories, USA] on the LightCycler® 480 Real-Time PCR System [Roche, Switzerland]) in the TAA model at Week 8 (early intervention and established fibrosis) and Week 12 (cirrhosis reversal), and by real-time PCR (PCR Dice® and SYBR® Premix Ex Taq™ [Takara Bio Inc., Japan]) at Week 9 in the NASH model.
Relative mRNA expression levels were normalized to the following reference genes: TAA model, GAPDH; NASH model, 36B4 (gene symbol: Rplp0); UUO model, hypoxanthine phosphoribosyltransferase.
In the NASH model, data are expressed as mean ±standard deviation (SD). Statistical analyses were performed using the Bonferroni multiple comparison test (GraphPad Prism® 4 software).

## CCCCOCCOc1ccc(-c2ccc3c(c2)/C=C(/C(=O)Nc2ccc([S@@+]([O-])Cc4cncn4CCC)cc2)CCCN3CC(C)C)cc1 [CVC, cenicriviroc mesylate]
[1]; CVC7 BID
  CVC concentration (mean±SD), plasma: 251 ± 364 ng/mL
[1]; CVC20 BID
  CVC concentration (mean±SD), plasma: 971 ± 507 ng/mL
[2]; CCl4 model, preliminary data
  Infiltration of Ly6Chi monocyte-derived macrophages into the liver: significantly decreased
[2]; acute CCl4 model
  Necrotic area: significant reduction
diet-induced NASH; CVC20, n = 6
  Hepatocyte ballooning score 0, number of animals: 0
  Hepatocyte ballooning score 1, number of animals: 3
  Hepatocyte ballooning score 2, number of animals: 3
  Lobular inflammation score 0, number of animals: 0
  Lobular inflammation score 1, number of animals: 3
  Lobular inflammation score 2, number of animals: 3
  Lobular inflammation score 3, number of animals: 0
  Steatosis score 0, number of animals: 0
  Steatosis score 1, number of animals: 6
  Steatosis score 2, number of animals: 0
  Steatosis score 3, number of animals: 0
diet-induced NASH; CVC20, n = 6, p = 0.0013
  NAS, mean (±SD): 4.0 (±0.6)
diet-induced NASH; CVC20, p < 0.05
  Reduction in collagen type 1 mRNA expression vs vehicle control: 37%
diet-induced NASH; CVC20
  Liver hydroxyproline content: 0.63 ± 0.05 µg/mg
diet-induced NASH; CVC20, not significant
  Percentage of inflammation area (F4/80+ area): 4.77±1.02%
  M1/M2 ratio (F4/80+CD16/32+ / F4/80+CD206+): 112.3±17.0%
diet-induced NASH; CVC20 BID PO Weeks 6-9
  Reduction in modified fibrosis area (perivascular space subtracted) vs vehicle control: 52.5%
  Reduction in percentage of fibrosis area vs vehicle control: 40.0%
diet-induced NASH; CVC20 BID PO Weeks 6-9, not significant
  Plasma CCL2 levels: 68 ± 16 pg/mL
diet-induced NASH; CVC100, n = 6
  Hepatocyte ballooning score 0, number of animals: 1
  Hepatocyte ballooning score 1, number of animals: 2
  Hepatocyte ballooning score 2, number of animals: 3
  Lobular inflammation score 0, number of animals: 0
  Lobular inflammation score 1, number of animals: 3
  Lobular inflammation score 2, number of animals: 3
  Lobular inflammation score 3, number of animals: 0
  Steatosis score 0, number of animals: 1
  Steatosis score 1, number of animals: 5
  Steatosis score 2, number of animals: 0
  Steatosis score 3, number of animals: 0
diet-induced NASH; CVC100, n = 6, p = 0.0009
  NAS, mean (±SD): 3.7 (±0.8)
diet-induced NASH; CVC100, not statistically significant
  Reduction in collagen type 1 mRNA expression vs vehicle control: 27%
diet-induced NASH; CVC100
  Liver hydroxyproline content: 0.62 ± 0.09 µg/mg
diet-induced NASH; CVC100, not significant
  M1/M2 ratio (F4/80+CD16/32+ / F4/80+CD206+): 125.1±21.9%
diet-induced NASH; CVC100 BID PO Weeks 6-9
  Reduction in modified fibrosis area (perivascular space subtracted) vs vehicle control: 67.2%
  Reduction in percentage of fibrosis area vs vehicle control: 41.8%
diet-induced NASH; CVC100 BID PO Weeks 6-9, significant increase
  Plasma CCL2 levels: 91 ± 14 pg/mL
diet-induced NASH; CVC-high, not significant
  Percentage of inflammation area (F4/80+ area): 4.96±0.60%
diet-induced NASH; NASH model, Week 9
  mRNA expression levels of the other fibrosis markers tested, vehicle control vs CVC groups: no statistically significant differences
diet-induced NASH; both CVC doses (CVC20, CVC100 BID PO Weeks 6-9), p < 0.05
  Plasma ALT levels vs vehicle control: significantly decreased
